Reference: ChEMBL document CHEMBL3817755, “Design, synthesis and biological evaluation of indazolepyrimidine based derivatives as anticancer agents with anti-angiogenic and antiproliferative activities” (Medchemcomm, 2016)

Experiments:
HUVEC = experiment: Antiproliferative activity against HUVEC after 72 hrs by AlamarBlue assay; conditions: Homo sapiens
[1] = Antiangiogenic activity in human PC3 cells assessed as reduction in VEGF levels at […] +/- […] uM after 72 hrs by ELISA relative to control; type: functional, PC-3; parameters: scale not given: the % may be the effect or the level left
[2] = Antiangiogenic activity in human PC3 cells assessed as reduction in TGF-beta levels at […] +/- […] uM after 72 hrs by ELISA relative to control; type: functional, PC-3; parameters: scale not given: the % may be the effect or the level left
[3] = Antiangiogenic activity in human PC3 cells assessed as reduction in TNF-alpha levels at […] +/- […] uM after 72 hrs by ELISA relative to control; type: functional, PC-3; parameters: scale not given: the % may be the effect or the level left
[4] = Antiangiogenic activity in human PC3 cells assessed as reduction in IGF-1 levels at […] +/- […] uM after 72 hrs by ELISA relative to control; type: functional, PC-3; parameters: scale not given: the % may be the effect or the level left
[5] = Antiangiogenic activity in human PC3 cells assessed as reduction in EGF levels at […] +/- […] uM after 72 hrs by ELISA relative to control; type: functional, PC-3; parameters: scale not given: the % may be the effect or the level left
[6] = Antiangiogenic activity in human PC3 cells assessed as reduction in FGF-beta levels at […] +/- […] uM after 72 hrs by ELISA relative to control; type: functional, PC-3; parameters: scale not given: the % may be the effect or the level left
[7] = Antiangiogenic activity in human PC3 cells assessed as reduction in leptin levels at […] +/- […] uM after 72 hrs by ELISA relative to control; type: functional, PC-3; parameters: scale not given: the % may be the effect or the level left
[8] = Solubility of the compound; type: physicochemical
NCI-H322M = experiment: Growth inhibition of human NCI-H322M cells after 48 hrs by SRB assay; type: functional
[9] = Growth inhibition of human SF539 cells after 48 hrs by SRB assay; type: functional; conditions: SF-539, 48 h
Malme-3M = experiment: Growth inhibition of human MALME-3M cells after 48 hrs by SRB assay; type: functional
[10] = Growth inhibition of human UACC62 cells after 48 hrs by SRB assay; type: functional; conditions: UACC-62, 48 h
[11] = Growth inhibition of human IGROV1 cells after 48 hrs by SRB assay; type: functional; conditions: IGROV-1, 48 h
[12] = Growth inhibition of human OVCAR5 cells after 48 hrs by SRB assay; type: functional; conditions: OVCAR-5, 48 h
ACHN = experiment: Growth inhibition of human ACHN cells after 48 hrs by SRB assay; type: functional
SN12C = experiment: Growth inhibition of human SN12C cells after 48 hrs by SRB assay; type: functional
[13] = Growth inhibition of human UO31 cells after 48 hrs by SRB assay; type: functional; conditions: UO-31, 48 h
MDA-MB-231 = experiment: Growth inhibition of human MDA-MB-231 cells after 48 hrs by SRB assay; type: functional; conditions: MDA-MB-231, 48 h
[14] = read-out: LC50 (the source's name)

Work on NS(=O)(=O)c1ccc(Nc2nccc(Nc3ccc4[nH]ncc4c3)n2)cc1 yielded an IC50 (HUVEC) of 1.37 µM, an Activity [1] of 37.6% and an Activity [2] of 32.2%. The Activity [3] was 36%, the Activity [4] was 39.5% and the Activity [5] was 34.6%. The Activity [6] was 28.4%, the Activity [7] was 24.5% and the solubility [8] was “Insoluble”.

In the case of COc1ccc(Nc2nccc(Nc3ccc4[nH]ncc4c3)n2)cc1, the GI50 (NCI-H322M) is reported as 4.48 µM, the TGI (NCI-H322M) is reported as 38.2 µM and the CC50 (NCI-H322M; [14]) is reported as > 100 µM. It also gave a GI50 [9] of 4.38 µM, a TGI [9] of 16.8 µM and a CC50 [9, 14] of 51.3 µM. For the same compound, the GI50 (Malme-3M) was 3.27 µM, the TGI (Malme-3M) was 15.9 µM and the CC50 (Malme-3M; [14]) was > 100 µM. The GI50 [10] was 1.93 µM, the TGI [10] was 16.9 µM and the CC50 [10, 14] was > 100 µM. For the same compound, the GI50 [11] was 3.36 µM, the TGI [11] was 25.1 µM and the CC50 [11, 14] was > 100 µM. The GI50 [12] was 3.33 µM, the TGI [12] was > 100 µM and the CC50 [12, 14] was > 100 µM. It also gave a GI50 (ACHN) of 2.89 µM, a TGI (ACHN) of 11.7 µM and a CC50 (ACHN; [14]) of 45 µM. For the same compound, the GI50 (SN12C) was 3.92 µM, the TGI (SN12C) was > 100 µM and the CC50 (SN12C; [14]) was > 100 µM. It also gave a GI50 [13] of 2.12 µM, a TGI [13] of 11.4 µM and a CC50 [13, 14] of 33.8 µM. For the same compound, the GI50 (MDA-MB-231) was 2.69 µM, the TGI (MDA-MB-231) was 5.36 µM and the CC50 (MDA-MB-231; [14]) was > 100 µM.
